Measurements reported in ChEMBL document CHEMBL3232888, “Optimization of anti-virulence PqsR antagonists regarding aqueous solubility and biological properties resulting in new insights in structure-activity relationships” (Eur J Med Chem, 2014).
In brackets after ≈: the same amount, converted by molar mass.

What was measured:
Pseudomonas aeruginosa [1] = assay: Antivirulence activity in Pseudomonas aeruginosa PA14 assessed as reduction of extracellular level of pyocyanin at 15 uM relative to control; format: functional; parameters: scale not given: the % may be the effect or the level left
[2] = Antagonist activity at Pseudomonas aeruginosa PqsR expressed in Escherichia coli DH5alpha assessed as inhibition of PQS-induced transcriptional activity by beta-galactosidase reporter gene assay relative to PQS
Pseudomonas aeruginosa [3] = assay: Antagonist activity at Pseudomonas aeruginosa PqsR expressed in Escherichia coli DH5alpha assessed as inhibition of PQS-induced transcriptional activity at 50 nM by beta-galactosidase reporter gene assay relative to PQS
Pseudomonas aeruginosa [4] = assay: Antagonist activity at Pseudomonas aeruginosa PqsR expressed in Escherichia coli DH5alpha assessed as inhibition of PQS-induced transcriptional activity at 5 uM by beta-galactosidase reporter gene assay relative to PQS
Pseudomonas aeruginosa [5] = assay: Antivirulence activity in Pseudomonas aeruginosa PA14 assessed as reduction of extracellular level of PQS at 15 uM by UHPLC-MS/MS analysis relative to control; format: functional; parameters: scale not given: the % may be the effect or the level left
Pseudomonas aeruginosa [6] = assay: Growth inhibition of Pseudomonas aeruginosa; format: organism-based; conditions: in vivo
[7] = Aqueous solubility of the compound in 2% DMSO at pH 7.4 by HPLC analysis; format: physicochemical; conditions: aqueous medium with 2% DMSO
Pseudomonas aeruginosa [8] = assay: Agonist activity at Pseudomonas aeruginosa PqsR expressed in Escherichia coli DH5alpha assessed as induction of transcriptional activity at 5 uM by beta-galactosidase reporter gene assay relative to PQS
[9] = Metal chelating activity of the compound assessed as CAS iron-chelation after 15 mins; format: physicochemical; conditions: 0.25 h
Pseudomonas aeruginosa [10] = assay: Antivirulence activity in Pseudomonas aeruginosa PA14 assessed as reduction of extracellular level of pyocyanin; format: functional
Pseudomonas aeruginosa [11] = assay: Agonist activity at Pseudomonas aeruginosa PqsR expressed in Escherichia coli DH5alpha assessed as induction of transcriptional activity at 1 uM by beta-galactosidase reporter gene assay relative to PQS
Pseudomonas aeruginosa [12] = assay: Antivirulence activity in Pseudomonas aeruginosa PA14 assessed as reduction of extracellular level of PQS at 100 uM by UHPLC-MS/MS analysis relative to control; format: functional; parameters: scale not given: the % may be the effect or the level left
Pseudomonas aeruginosa [13] = assay: Antivirulence activity in Pseudomonas aeruginosa PA14 assessed as reduction of extracellular level of pyocyanin at 100 uM relative to control; format: functional; parameters: scale not given: the % may be the effect or the level left
Pseudomonas aeruginosa [14] = assay: Agonist activity at Pseudomonas aeruginosa PqsR expressed in Escherichia coli DH5alpha assessed as induction of transcriptional activity at 10 uM by beta-galactosidase reporter gene assay relative to PQS
Pseudomonas aeruginosa [15] = assay: Antivirulence activity in Pseudomonas aeruginosa PA14 assessed as reduction of extracellular level of PQS at 250 uM by UHPLC-MS/MS analysis relative to control; format: functional; parameters: scale not given: the % may be the effect or the level left
Pseudomonas aeruginosa [16] = assay: Antivirulence activity in Pseudomonas aeruginosa PA14 assessed as reduction of extracellular level of pyocyanin at 250 uM relative to control; format: functional; parameters: scale not given: the % may be the effect or the level left

Row | inhibition (Pseudomonas aeruginosa [3]) [%] | inhibition (Pseudomonas aeruginosa [4]) [%] | solubility [7] [µM] | Activity (Pseudomonas aeruginosa [8]) [%] | Structure (SMILES) | other results
1 | -31 | -29 | < 5 | 1.25 | CCCCCCCc1[nH]c2ccc([N+](=O)[O-])cc2c(=O)c1O | –
2 | 15 | 29 | > 200 | 0.83 | CCCCCCCc1[nH]c2ccccc2c(=O)c1C(=O)NO | –
3 | 14 | 17 | < 5 | 0.84 | CCCCCCCc1[nH]c2ccccc2c(=O)c1[N+](=O)[O-] | –
4 | 18 | 32 | 5 (≈ 1.58 µg/mL) | 0 | CCCCCCCc1[nH]c2ccccc2c(=O)c1C(=O)OCC | –
5 | 12 | 41 | 15 (≈ 4.31 µg/mL) | 0.73 | CCCCCCCc1[nH]c2ccccc2c(=O)c1C(=O)O | –
6 | 8 | 2 | 50 (≈ 12.2 µg/mL) | 0.82 | CCCCCCCc1cc(=O)c2cnccc2[nH]1 | –
7 | 30 | 78 | > 200 | 0.3 | CCCCCCCc1[nH]c2ccc([N+](=O)[O-])cc2c(=O)c1C(=O)NO | –
8 | 5 | 28 | 50 (≈ 13.7 µg/mL) | 0.49 | CCCCCCCc1[nH]c2ccccc2c(=O)c1CO | –
9 | -8 | 20 | 5 (≈ 1.8 µg/mL) | 0 | CCCCCCCc1[nH]c2ccc([N+](=O)[O-])cc2c(=O)c1C(=O)OCC | –
10 | 1 | 33 | 50 (≈ 16.7 µg/mL) | 0.42 | CCOCCCCc1[nH]c2ccc([N+](=O)[O-])cc2c(=O)c1C(=O)O | –
11 | 2 | 27 | 5 (≈ 1.81 µg/mL) | 0.09 | CCOCCCCc1[nH]c2ccc([N+](=O)[O-])cc2c(=O)c1C(=O)OCC | –
12 | 2 | 13 | 15 (≈ 5.44 µg/mL) | 0 | CCCCCOCc1[nH]c2ccc([N+](=O)[O-])cc2c(=O)c1C(=O)OCC | –

More lines, now with the values behind:

Row | Structure (SMILES) | inhibition (Pseudomonas aeruginosa [3]) [%] | inhibition (Pseudomonas aeruginosa [4]) [%] | solubility [7] [µM] | Activity (Pseudomonas aeruginosa [8]) [%] | other results
13 | CCCCCOCc1cc(=O)c2cc(C(F)(F)F)ccc2[nH]1 | 29 | 100 | 15 (≈ 4.7 µg/mL) | 0 | Activity (Pseudomonas aeruginosa [1]): 29%; IC50 [2]: 172 nM; Activity (Pseudomonas aeruginosa [5]): 21%; Activity (Pseudomonas aeruginosa [6]): Non-toxic
14 | CCCCCCCc1[nH]c2ccc([N+](=O)[O-])cc2c(=O)c1C(N)=O | 60 | 100 | 15 (≈ 4.97 µg/mL) | 0 | Activity (Pseudomonas aeruginosa [1]): 81%; Activity [9]: Not Active; IC50 [2]: 35 nM; Activity (Pseudomonas aeruginosa [5]): 37%; IC50 (Pseudomonas aeruginosa [10]): 2000 nM; Activity (Pseudomonas aeruginosa [6]): Non-toxic
15 | CCCCCCCc1[nH]c2ccncc2c(=O)c1C(=O)O | 6 | 20 | 50 (≈ 14.4 µg/mL) | 0.66 | –
16 | CCCCCOCc1[nH]c2ccc([N+](=O)[O-])cc2c(=O)c1C(=O)O | 7 | 6 | 50 (≈ 16.7 µg/mL) | 0.48 | –
17 | CCCCCCCc1cc(=O)c2ccccc2[nH]1 | – | – | – | – | Activity (Pseudomonas aeruginosa [11]): 0.75%
18 | CCCCCCCc1[nH]c2ccc([N+](=O)[O-])cc2c(=O)c1C(=O)O | 11 | 34 | 15 (≈ 4.99 µg/mL) | 0.78 | –
19 | CCOCCCCc1cc(=O)c2cc([N+](=O)[O-])ccc2[nH]1 | 6 | 72 | 50 (≈ 14.5 µg/mL) | 0.13 | IC50 [2]: 3510 nM; Activity (Pseudomonas aeruginosa [12]): 13%; Activity (Pseudomonas aeruginosa [13]): 23%; Activity (Pseudomonas aeruginosa [6]): Non-toxic
20 | CCCCCCCc1[nH]c2ccc([N+](=O)[O-])cc2c(=O)c1CO | 45 | 100 | 5 (≈ 1.59 µg/mL) | 0 | Activity (Pseudomonas aeruginosa [1]): 83%; Activity [9]: Not Active; IC50 [2]: 72 nM; Activity (Pseudomonas aeruginosa [5]): 33%; IC50 (Pseudomonas aeruginosa [10]): 3800 nM; Activity (Pseudomonas aeruginosa [6]): Non-toxic
21 | CCCCCCCc1[nH]c2ccccc2c(=O)c1N | -4 | -7 | 50 (≈ 12.9 µg/mL) | 1.22 | –
22 | CCCCCCCc1cc(=O)c2cc(C(F)(F)F)ccc2n1C | 31 | 100 | 5 (≈ 1.63 µg/mL) | 0 | Activity (Pseudomonas aeruginosa [1]): 58%; IC50 [2]: 270 nM; Activity (Pseudomonas aeruginosa [5]): 8.9%; Activity (Pseudomonas aeruginosa [6]): Non-toxic
23 | CCCCCCCc1cc(=O)c2cc([N+](=O)[O-])ccc2[nH]1 | 73 | 100 | < 5 | – | Activity (Pseudomonas aeruginosa [1]): 44%; IC50 [2]: 51 nM; Activity (Pseudomonas aeruginosa [14]): 0%; Activity (Pseudomonas aeruginosa [5]): 14%; Activity (Pseudomonas aeruginosa [6]): Non-toxic
24 | CCCCCOCc1cc(=O)c2cc([N+](=O)[O-])ccc2[nH]1 | 49 | 100 | 15 (≈ 4.35 µg/mL) | 0 | Activity (Pseudomonas aeruginosa [1]): 27%; IC50 [2]: 253 nM; Activity (Pseudomonas aeruginosa [5]): 23%; Activity (Pseudomonas aeruginosa [6]): Non-toxic
25 | CCOCCCCc1cc(=O)c2ccccc2[nH]1 | 54 | 42 | > 200 | 0.31 | –
26 | CCCCCCCc1cc(O)c2ccccc2n1 | – | – | 15 (≈ 3.65 µg/mL) | – | –
27 | CCCCCCCc1[nH]c2ccncc2c(=O)c1C(=O)OCC | 24 | 76 | 50 (≈ 15.8 µg/mL) | 0.02 | –
28 | CCCCCCCc1[nH]c2ccccc2c(=O)c1C(N)=O | 8 | 27 | 5 (≈ 1.43 µg/mL) | 0.65 | –
29 | CCOCCCCc1cc(=O)c2cc(C(F)(F)F)ccc2[nH]1 | 8 | 69 | > 200 | 0.02 | IC50 [2]: 1710 nM; Activity (Pseudomonas aeruginosa [15]): 8.6%; Activity (Pseudomonas aeruginosa [6]): Non-toxic; Activity (Pseudomonas aeruginosa [16]): 39%
30 | CCCCCCc1cc(=O)c2cc(C(F)(F)F)ccc2n1C | 45 | 100 | 15 (≈ 4.67 µg/mL) | 0 | IC50 [2]: 229 nM; Activity (Pseudomonas aeruginosa [6]): Non-toxic
31 | CCCCCOCc1cc(=O)c2ccccc2[nH]1 | 11 | 6 | > 200 | 0.89 | –
32 | CCCCCCCc1cc(OC)c2ccccc2n1 | -23 | -6 | 5 (≈ 1.29 µg/mL) | 0.03 | –
